Earlier results in patent US20040023948A1, “Fast-dispersing dosage form containing 5-HT1 agonists” (priority 1997, published 2004).

Settings: Vogel conflict test in rats; Gammans et al. 1986

Compound: c1cnc(N2CCNCC2)nc1 [Example 1-PP, 1-pyrimidinylpiperazine]
- activity relative to unchanged buspirone: ≤ 20%
